How the values were obtained:
[1] = target: T1, Serotonin 2 (5-HT2) receptor (Rattus norvegicus, UniProt P30994+P08909+P14842); assay: Inhibition of [3H]ketanserin binding to rat 5-hydroxytryptamine 2 receptors.; type: protein assay
[2] = target: D(2) dopamine receptor (Rattus norvegicus, UniProt P61169); assay: Tested for the inhibition of [3H]spiperone binding to dopamine D2 receptor
[3] = target: D(2) dopamine receptor (Mus musculus) (UniProt P61168); assay: Tested in vivo for methyl phenidate-induced gnawing behavior antagonistic activity against dopamine D2 receptor in mice; type: functional, organism-based
D(2) dopamine receptor (Mus musculus), sequence (P61168 whole entry): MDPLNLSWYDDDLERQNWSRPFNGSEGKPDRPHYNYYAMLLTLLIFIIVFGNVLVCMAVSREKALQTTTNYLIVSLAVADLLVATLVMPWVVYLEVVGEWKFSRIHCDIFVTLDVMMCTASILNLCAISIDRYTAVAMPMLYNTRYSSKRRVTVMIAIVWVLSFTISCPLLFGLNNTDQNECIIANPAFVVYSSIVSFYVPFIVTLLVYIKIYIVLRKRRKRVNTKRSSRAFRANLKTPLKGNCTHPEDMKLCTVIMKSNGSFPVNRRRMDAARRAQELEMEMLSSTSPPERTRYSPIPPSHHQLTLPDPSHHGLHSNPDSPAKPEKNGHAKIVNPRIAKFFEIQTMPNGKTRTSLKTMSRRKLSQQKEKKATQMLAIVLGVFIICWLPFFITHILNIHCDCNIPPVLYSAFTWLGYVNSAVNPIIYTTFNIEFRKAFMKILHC

[4] = target: D(2) dopamine receptor (Rattus norvegicus) (UniProt P61169); assay: Compound was tested in vivo for induction of catalepsy against D-2 receptor in rats; type: organism-based
D(2) dopamine receptor (Rattus norvegicus), sequence (P61169 whole entry): as the sequence (P61168 whole entry) above, with P29A counted along it

[5] = target: D(2) dopamine receptor (Rattus norvegicus) (UniProt P61169); assay: Tested in vivo for induction of catalepsy against D2 receptor in rats; type: functional, organism-based
[6] = species on record: Rattus norvegicus; assay: Inhibition of quipazine induced head twitches in rats; type: functional
[7] = tested on: Rattus norvegicus; assay: Compound was tested for the inhibition of quipazine-induced head twitches 24 hours after subcutaneous administration; type: functional; settings: sc
[8] = target: T2, Serotonin 2 (5-HT2) receptor (Rattus norvegicus) (UniProt P30994+P08909+P14842); assay: Compound was tested for the inhibition of quipazine binding at 5-HT2 receptor; type: protein assay
T2 sequence (P08909 whole entry, looked up): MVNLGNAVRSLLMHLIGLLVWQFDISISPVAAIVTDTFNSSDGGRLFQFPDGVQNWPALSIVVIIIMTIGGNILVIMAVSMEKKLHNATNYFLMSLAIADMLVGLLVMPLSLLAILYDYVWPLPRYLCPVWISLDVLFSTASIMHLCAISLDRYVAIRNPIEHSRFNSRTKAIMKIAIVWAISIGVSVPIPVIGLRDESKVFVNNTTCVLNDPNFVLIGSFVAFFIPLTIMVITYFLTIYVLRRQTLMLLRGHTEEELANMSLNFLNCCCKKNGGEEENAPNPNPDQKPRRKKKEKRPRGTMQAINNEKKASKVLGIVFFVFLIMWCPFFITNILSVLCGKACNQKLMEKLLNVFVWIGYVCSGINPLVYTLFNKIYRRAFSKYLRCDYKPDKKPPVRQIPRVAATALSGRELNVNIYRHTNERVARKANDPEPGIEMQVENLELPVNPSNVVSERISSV
T2 sequence (P14842 whole entry, looked up): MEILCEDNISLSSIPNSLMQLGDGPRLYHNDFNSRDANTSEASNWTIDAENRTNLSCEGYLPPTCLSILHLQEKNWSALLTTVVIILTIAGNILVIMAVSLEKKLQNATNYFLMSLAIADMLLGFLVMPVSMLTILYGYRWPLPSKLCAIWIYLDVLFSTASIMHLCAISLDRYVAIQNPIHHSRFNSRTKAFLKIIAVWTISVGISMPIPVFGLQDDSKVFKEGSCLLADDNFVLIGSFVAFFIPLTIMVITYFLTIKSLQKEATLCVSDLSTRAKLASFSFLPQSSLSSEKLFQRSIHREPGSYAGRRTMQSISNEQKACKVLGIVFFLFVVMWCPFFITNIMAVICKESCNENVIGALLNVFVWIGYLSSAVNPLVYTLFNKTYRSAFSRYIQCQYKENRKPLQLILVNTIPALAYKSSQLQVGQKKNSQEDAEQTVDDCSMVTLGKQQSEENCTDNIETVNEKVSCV
T2 sequence (P30994 whole entry, looked up): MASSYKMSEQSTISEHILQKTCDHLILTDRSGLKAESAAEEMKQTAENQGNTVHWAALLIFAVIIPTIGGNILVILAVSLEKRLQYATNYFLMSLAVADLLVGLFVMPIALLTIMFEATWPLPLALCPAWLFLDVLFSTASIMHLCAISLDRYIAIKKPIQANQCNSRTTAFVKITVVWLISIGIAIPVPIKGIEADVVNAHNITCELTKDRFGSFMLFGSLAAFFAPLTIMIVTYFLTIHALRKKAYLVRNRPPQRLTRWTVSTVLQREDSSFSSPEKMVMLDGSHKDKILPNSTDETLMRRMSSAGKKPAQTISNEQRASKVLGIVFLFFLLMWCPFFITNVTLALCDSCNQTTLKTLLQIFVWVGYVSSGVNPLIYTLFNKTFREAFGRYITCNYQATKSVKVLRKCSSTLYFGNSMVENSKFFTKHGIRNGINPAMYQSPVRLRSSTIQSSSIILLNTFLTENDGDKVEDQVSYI

[9] = target: D(2) dopamine receptor (Mus musculus) (UniProt P61168); assay: (§1) Compound was tested in vivo for methyl phenidate-induced gnawing behavior antagonistic activity against dopamine D-2 receptor in mice; type: functional, organism-based
[10] = target: T1, Serotonin 2 (5-HT2) receptor; assay: Inhibition of [3H]ketanserin binding to […] 5-hydroxytryptamine 2 receptor; type: protein assay
[11] = target: D(2) dopamine receptor (Rattus norvegicus) (UniProt P61169); assay: as §1; type: functional, organism-based
[12] = target: T2, Serotonin 2 (5-HT2) receptor (Rattus norvegicus); assay: Compound was tested for the inhibition of quipazine binding at 5-hydroxytryptamine 2 receptor; type: protein assay

D(2) dopamine receptor, sequence (P61169 whole entry): as the sequence (P61168 whole entry) above, with P29A counted along it

| SMILES | IC50 [1] [nM] | IC50 [2] [nM] | ED50 [3] [µmol/kg] | ED50 [5] [µmol/kg] | ED50 [6] [µmol/kg] | further results |
| --- | --- | --- | --- | --- | --- | --- |
| N#Cc1ccc2c(c1)c(C1=CCN(CCN3CCNC3=O)CC1)cn2-c1ccc(F)cc1 | 3.2 | 2.1 |  |  |  | ED50 [4]: 0.37 µmol/kg |
| O=C1NCCN1CCN1CC=C(c2cn(-c3ccc(F)cc3)c3ccc(Cl)cc23)CC1 |  | 2.3 | 2 | 2.2 | 0.22 | ED50 [7]: 1.2 µmol/kg |
| O=C1N(CCN2CCC(c3cn(-c4ccc(F)cc4)c4ccc(Cl)cc34)CC2)CCN1C1CCCC1 |  |  |  |  |  | ED50 [8]: > 2.1 µmol/kg; ED50 [9]: > 67 µmol/kg |
| O=C1N(CCN2CCC(c3cn(-c4ccc(F)cc4)c4ccc(Cl)cc34)CC2)CCN1c1ccccc1 | 4.4 | 92 |  |  | > 0.15 | ED50 [9]: > 77 µmol/kg |
| O=C1NCCN1CCN1CCC(c2cn(-c3ccc(F)cc3)c3ccc(Cl)cc23)(c2cn(-c3ccc(F)cc3)c3ccc(Cl)cc23)CC1 |  |  |  |  |  | IC50 [10]: 120 nM |
| Fc1ccc(-n2cc(C3CCNCC3)c3cc(Cl)ccc32)cc1 | 3.8 | 23 |  |  | 1.5 | ED50 [9]: > 90 µmol/kg |
| Fc1ccc(-n2cc(C3=CCNCC3)c3cc(Cl)ccc32)cc1 |  |  |  | > 61 | 1.5 | ED50 [11]: 17 µmol/kg |
| Cc1nc2n(c(=O)c1CCN1CCC(c3noc4cc(F)ccc34)CC1)CCCC2 [RISPERIDONE] |  |  |  |  |  | ED50 [7]: > 3 µmol/kg |
| O=C1NCCN1CCN1CC=C(c2cn(-c3ccc(F)cc3)c3ccc(C(F)(F)F)cc23)CC1 |  |  | 0.37 | 0.49 | > 0.66 | ED50 [12]: 0.14 µmol/kg |
| CN1CC=C(c2cn(-c3ccc(F)cc3)c3ccc([N+](=O)[O-])cc23)CC1 |  | 0.76 | 0.022 | 0.025 | 0.0091 | IC50 [10]: 1.9 nM |
| CN1CC=C(c2cn(-c3ccc(F)cc3)c3ccccc23)CC1 |  | 1.6 | 1.3 | 3.6 | 0.15 |  |
| CN1CC=C(c2cn(-c3ccc(F)cc3)c3ccc(F)cc23)CC1 |  |  | 0.44 | 0.64 | 0.15 | IC50 [10]: 3 nM |
| CN1CC=C(c2cn(-c3ccc(F)cc3)c3ccc(Cl)cc23)CC1 |  | 1.1 | 0.085 | 0.085 | 0.058 | IC50 [10]: 0.53 nM; ED50 [7]: > 0.19 µmol/kg |
| CC(C)N1CCN(CCN2CCC(c3cn(-c4ccc(F)cc4)c4ccc(Cl)cc34)CC2)C1=O | 2.1 | 12 | > 69 | > 69 | 0.046 |  |
| CS(=O)(=O)c1ccc2c(c1)c(C1CCN(CCN3CCNC3=O)CC1)cn2-c1ccc(F)cc1 | 8 | 5.8 | > 67 | > 17 | 54 |  |
| CN1CCN(C2=Nc3cc(Cl)ccc3Nc3ccccc32)CC1 [CLOZAPINE] |  |  |  |  |  | ED50 [7]: > 31 µmol/kg |
| O=C1NCCN1CCCN1CCC(c2cn(-c3ccc(F)cc3)c3ccc(Cl)cc23)CC1 | 1 | 3.4 | 57 | 11 | 1.8 |  |
| Fc1ccc(-n2cc(C3=CCNCC3)c3cc(C(F)(F)F)ccc32)cc1 |  |  | 2.1 | > 14 | > 0.86 |  |
| OCCN1CCN([C@@H]2C[C@@H](c3ccc(F)cc3)c3ccc(C(F)(F)F)cc32)CC1 (racemic) [TEFLUDAZINE] | 2.8 |  | 0.2 | 0.12 | 0.029 |  |
| O=C1NCCN1CCCCCCN1CCC(c2cn(-c3ccc(F)cc3)c3ccc(Cl)cc23)CC1 |  | 2.2 | 2.7 | 20 | > 2.2 | IC50 [10]: 2.5 nM |
| O=C1NCCN1CCN1CCC(c2cn(-c3ccc(F)cc3)c3ccccc23)CC1 | 0.082 | 18 | > 98 | > 98 | 0.036 | ED50 [7]: 0.082 µmol/kg |
| CN1CCN(c2cn(-c3ccc(F)cc3)c3ccc(Cl)cc23)CC1 |  | 1 | 0.12 | 0.23 | 0.041 | IC50 [10]: 0.3 nM |

Now from value to molecule, other results behind:

| IC50 [1] [nM] | IC50 [2] [nM] | ED50 [3] [µmol/kg] | SMILES | ED50 [5] [µmol/kg] | ED50 [6] [µmol/kg] | further results |
| --- | --- | --- | --- | --- | --- | --- |
| 1.3 | 2.2 | 34 | N#Cc1ccc2c(c1)c(C1CCN(CCN3CCNC3=O)CC1)cn2-c1ccc(F)cc1 |  |  |  |
| 1 | 24 | > 76 | COc1ccc2c(c1)c(C1CCN(CCN3CCNC3=O)CC1)cn2-c1ccc(F)cc1 | > 46 | 0.77 |  |
|  | 21 | 7.8 | O=C1NCCN1CCN1CCN(c2cn(-c3ccc(F)cc3)c3ccc(Cl)cc23)CC1 | 4.5 | 0.015 | IC50 [10]: 4.4 nM |
|  |  | > 180 | O=C1NCCN1CCN1CCC(c2cn(-c3ccc(F)cc3)c3ccc(Cl)cc23)CC1 [SERTINDOLE] | > 91 | 0.052 | ED50 [7]: 0.03 µmol/kg |
| 0.24 | 6.5 | 2.6 | CN1CCN(CCN2CCC(c3cn(-c4ccc(F)cc4)c4ccc(Cl)cc34)CC2)C1=O | 31 | 0.021 |  |
| 0.48 | 4.7 | > 78 | O=C1NCCN1CCN1CCC(c2cn(-c3ccc(F)cc3)c3ccc(F)cc23)CC1 | > 78 | 0.052 | ED50 [7]: 0.0097 µmol/kg |
| 0.3 | 3.7 | 98 | Cc1ccc2c(c1)c(C1CCN(CCN3CCNC3=O)CC1)cn2-c1ccc(F)cc1 | > 91 | 0.0083 |  |
| 2.7 | 4.5 | 1.5 | OCCN1CCC(c2cn(-c3ccc(F)cc3)c3ccc(Cl)cc23)CC1 | 3.8 | 0.034 |  |
| 1.3 | 3.8 | > 82 | O=C1NCCN1CCN1CCC(c2cn(-c3ccc(F)cc3)c3ccc(Br)cc23)CC1 | > 41 | 0.032 |  |
|  |  | 0.079 | OCCN1CCN(c2cn(-c3ccc(F)cc3)c3ccc(C(F)(F)F)cc23)CC1 | 0.06 | 0.023 | IC50 [10]: 1.4 nM |
| 25 | 810 |  | O=C1NCCN1CCN1CCC(c2c[nH]c3ccc(Cl)cc23)CC1 |  | > 14 | ED50 [4]: 47 µmol/kg |
| 1.5 | 4.2 | 14 | O=C1NCCN1CCCCCN1CCC(c2cn(-c3ccc(F)cc3)c3ccc(Cl)cc23)CC1 |  | 1.5 |  |
| 59 | 78 | > 72 | O=C1NCCN1CCCCN1CCC(c2cn(-c3ccc(F)cc3)c3ccc(Cl)cc23)CC1 |  | > 2.2 |  |
| 1 | 1.9 | 22 | O=C1NCCN1CCN1CCC(c2cn(-c3ccc(F)cc3)c3ccc(C(F)(F)F)cc23)CC1 | 45 | 0.11 |  |

— ChEMBL document CHEMBL1125407, “Noncataleptogenic, centrally acting dopamine D-2 and serotonin 5-HT2 antagonists within a series of 3-substituted 1-(4-fluorophenyl)-1H-indoles” (J Med Chem, 1992)
